Counter-ions that a name gives are not always drawn.
Assay: Stability Test under accelerated condition (solid in amber glass vials, impurities by HPLC)
Assay type: physicochemical
Procedure: Stability of the mesylate salt of the present invention was evaluated under accelerated condition. About 5 mg of the mesylate salt of the present invention were introduced in individual 10 ml amber glass vials. These vials were stored at 40° C. during 30 days and at 80° C. during 15 and 30 days, respectively. After the forced stress conditions, samples were dissolved in 5 ml of the appropriate solvent. Impurities increase was determined using HPLC analysis and by calculating the relative areas.

O=c1ccc2c([C@@H](O)CNCCCCCCOCC(F)(F)c3ccccc3)ccc(O)c2[nH]1 [5-(2-{[6-(2,2-difluoro-2-phenylethoxy)hexyl]amino}-1(R)-hydroxy-ethyl)-8-hydroxyquinolin-2(1H)-one mesylate]
HPLC Impurities (% area) (Stability @ 40° C. 30 days): 2.4% | HPLC Impurities (% area) (Stability @ 80° C. 15 days): 3.10% | HPLC Impurities (% area) (Stability @ 80° C. 30 days): 3.8% | percentage of impurities observed (all forced conditions (40° C. 30 days, 80° C. 15 and 30 days)): less than 5%

— patent US8563731B2, “Mesylate salt of 5-(2-{[6-(2,2-difluoro-2-phenylethoxy)hexyl]jamino}-1-hydroxyethyl)-8-hydroxyquinolin-2(1H)-one as agonist of the β2 adrenergic receptor” (Almirall, S.A., priority 2008, dated 2013)
